{"source": "paper PMC4308110", "about": "(PLoS ONE, 2015)", "target": "T1, SthK-Cterm (Winmispira thermophila, UniProt E0RR11)", "T1 construct": "gene STHERM_c06300; C-linker/CNBD, residues 226-430 of full length; synthetic gene, His6-MBP fusion cut with thrombin; E. coli BL21(DE3); tetramer (SEC-MALLS); model residues 226-423", "T1 sequence (E0RR11 entry or part of it)": "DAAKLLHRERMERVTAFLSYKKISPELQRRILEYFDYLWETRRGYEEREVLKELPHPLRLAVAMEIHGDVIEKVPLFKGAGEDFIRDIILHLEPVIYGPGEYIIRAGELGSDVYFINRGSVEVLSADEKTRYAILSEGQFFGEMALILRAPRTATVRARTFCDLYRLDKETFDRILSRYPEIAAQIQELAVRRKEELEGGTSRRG", "assay": "X-ray crystal structure", "settings": "antagonist; 5 mM cGMP added; bistrispropane pH 7.5, 20 °C; 2.55 Å; cyclic nucleotide-binding site", "data": [{"smiles": "Nc1nc2c(ncn2[C@@H]2O[C@@H]3COP(=O)(O)O[C@H]3[C@H]2O)c(=O)[nH]1", "note": "[cGMP]", "values": [{"measurement": "X-ray crystal structure", "result": "we observe that cGMP is able to bind in the cyclic nucleotide binding cavity from SthK"}]}]}
